Source: ChEMBL document CHEMBL4052799, “Discovery of orally bioavailable cyclohexanol-based NR2B-selective NMDA receptor antagonists with analgesic activity utilizing a scaffold hopping approach” (Bioorg Med Chem Lett, 2017)

Tests used:
[1] = biological target: Glutamate receptor ionotropic, NMDA 2B (Mus musculus, UniProt P35438+Q01097); assay: Antagonist activity at mouse NR2B expressed in Hek293 cells co-expressing mouse NR1 assessed as inhibition of glutamic acid/glycine-induced intracellular Ca2+ levels measured after 1 day post induction by Fluo-3/AM dye-based fluorescence assay; type: cell-based
Sequence of Glutamate receptor ionotropic, NMDA 2B (Mus musculus, UniProt P35438+Q01097) (Q01097 whole entry, one chain of several): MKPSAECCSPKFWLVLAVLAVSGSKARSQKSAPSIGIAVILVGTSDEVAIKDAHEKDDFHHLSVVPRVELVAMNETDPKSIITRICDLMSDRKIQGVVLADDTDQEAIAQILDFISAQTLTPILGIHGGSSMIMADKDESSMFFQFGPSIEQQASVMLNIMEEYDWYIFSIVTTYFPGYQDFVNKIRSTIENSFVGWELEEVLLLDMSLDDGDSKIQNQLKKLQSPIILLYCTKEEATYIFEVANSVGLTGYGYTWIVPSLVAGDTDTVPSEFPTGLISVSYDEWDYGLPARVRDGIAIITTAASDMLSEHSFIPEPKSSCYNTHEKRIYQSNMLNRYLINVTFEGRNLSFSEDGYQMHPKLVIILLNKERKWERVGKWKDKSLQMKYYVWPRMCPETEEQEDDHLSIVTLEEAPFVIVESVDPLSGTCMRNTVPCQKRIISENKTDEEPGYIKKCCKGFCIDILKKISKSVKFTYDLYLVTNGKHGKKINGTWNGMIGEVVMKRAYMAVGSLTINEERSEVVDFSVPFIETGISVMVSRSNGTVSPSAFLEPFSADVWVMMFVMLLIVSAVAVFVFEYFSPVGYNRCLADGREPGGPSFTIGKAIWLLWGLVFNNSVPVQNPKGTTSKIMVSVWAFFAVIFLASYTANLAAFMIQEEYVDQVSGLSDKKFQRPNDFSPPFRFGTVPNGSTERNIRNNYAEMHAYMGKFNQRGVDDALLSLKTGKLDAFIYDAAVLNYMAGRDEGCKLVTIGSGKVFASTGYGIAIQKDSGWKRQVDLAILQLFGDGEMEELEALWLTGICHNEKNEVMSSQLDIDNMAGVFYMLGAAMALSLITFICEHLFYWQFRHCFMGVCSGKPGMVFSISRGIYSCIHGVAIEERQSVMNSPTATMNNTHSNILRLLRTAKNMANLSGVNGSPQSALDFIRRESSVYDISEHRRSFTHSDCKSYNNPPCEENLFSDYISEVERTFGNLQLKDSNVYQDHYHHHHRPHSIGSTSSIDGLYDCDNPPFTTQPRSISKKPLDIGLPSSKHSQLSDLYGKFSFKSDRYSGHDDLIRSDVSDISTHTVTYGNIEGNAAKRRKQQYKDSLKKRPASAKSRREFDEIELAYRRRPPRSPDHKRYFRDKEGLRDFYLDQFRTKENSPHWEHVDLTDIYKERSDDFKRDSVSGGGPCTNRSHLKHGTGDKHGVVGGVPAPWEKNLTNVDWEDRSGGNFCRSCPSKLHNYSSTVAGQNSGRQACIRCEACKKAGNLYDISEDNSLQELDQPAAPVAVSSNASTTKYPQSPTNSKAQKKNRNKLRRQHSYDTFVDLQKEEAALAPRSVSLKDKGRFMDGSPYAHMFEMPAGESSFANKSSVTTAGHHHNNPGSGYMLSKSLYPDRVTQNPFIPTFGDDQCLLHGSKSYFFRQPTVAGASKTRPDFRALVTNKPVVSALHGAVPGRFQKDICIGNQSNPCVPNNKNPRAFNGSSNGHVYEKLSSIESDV

[2] = biological target: Glutamate receptor ionotropic, NMDA 2B (Rattus norvegicus, UniProt Q00960); assay: Displacement of [3H]-ifenprodil from NR2B in Wistar rat brain membrane after 120 mins by liquid scintillation counting analysis; type: cell membranes
Sequence of Glutamate receptor ionotropic, NMDA 2B (Rattus norvegicus, UniProt Q00960) (Q00960 whole entry): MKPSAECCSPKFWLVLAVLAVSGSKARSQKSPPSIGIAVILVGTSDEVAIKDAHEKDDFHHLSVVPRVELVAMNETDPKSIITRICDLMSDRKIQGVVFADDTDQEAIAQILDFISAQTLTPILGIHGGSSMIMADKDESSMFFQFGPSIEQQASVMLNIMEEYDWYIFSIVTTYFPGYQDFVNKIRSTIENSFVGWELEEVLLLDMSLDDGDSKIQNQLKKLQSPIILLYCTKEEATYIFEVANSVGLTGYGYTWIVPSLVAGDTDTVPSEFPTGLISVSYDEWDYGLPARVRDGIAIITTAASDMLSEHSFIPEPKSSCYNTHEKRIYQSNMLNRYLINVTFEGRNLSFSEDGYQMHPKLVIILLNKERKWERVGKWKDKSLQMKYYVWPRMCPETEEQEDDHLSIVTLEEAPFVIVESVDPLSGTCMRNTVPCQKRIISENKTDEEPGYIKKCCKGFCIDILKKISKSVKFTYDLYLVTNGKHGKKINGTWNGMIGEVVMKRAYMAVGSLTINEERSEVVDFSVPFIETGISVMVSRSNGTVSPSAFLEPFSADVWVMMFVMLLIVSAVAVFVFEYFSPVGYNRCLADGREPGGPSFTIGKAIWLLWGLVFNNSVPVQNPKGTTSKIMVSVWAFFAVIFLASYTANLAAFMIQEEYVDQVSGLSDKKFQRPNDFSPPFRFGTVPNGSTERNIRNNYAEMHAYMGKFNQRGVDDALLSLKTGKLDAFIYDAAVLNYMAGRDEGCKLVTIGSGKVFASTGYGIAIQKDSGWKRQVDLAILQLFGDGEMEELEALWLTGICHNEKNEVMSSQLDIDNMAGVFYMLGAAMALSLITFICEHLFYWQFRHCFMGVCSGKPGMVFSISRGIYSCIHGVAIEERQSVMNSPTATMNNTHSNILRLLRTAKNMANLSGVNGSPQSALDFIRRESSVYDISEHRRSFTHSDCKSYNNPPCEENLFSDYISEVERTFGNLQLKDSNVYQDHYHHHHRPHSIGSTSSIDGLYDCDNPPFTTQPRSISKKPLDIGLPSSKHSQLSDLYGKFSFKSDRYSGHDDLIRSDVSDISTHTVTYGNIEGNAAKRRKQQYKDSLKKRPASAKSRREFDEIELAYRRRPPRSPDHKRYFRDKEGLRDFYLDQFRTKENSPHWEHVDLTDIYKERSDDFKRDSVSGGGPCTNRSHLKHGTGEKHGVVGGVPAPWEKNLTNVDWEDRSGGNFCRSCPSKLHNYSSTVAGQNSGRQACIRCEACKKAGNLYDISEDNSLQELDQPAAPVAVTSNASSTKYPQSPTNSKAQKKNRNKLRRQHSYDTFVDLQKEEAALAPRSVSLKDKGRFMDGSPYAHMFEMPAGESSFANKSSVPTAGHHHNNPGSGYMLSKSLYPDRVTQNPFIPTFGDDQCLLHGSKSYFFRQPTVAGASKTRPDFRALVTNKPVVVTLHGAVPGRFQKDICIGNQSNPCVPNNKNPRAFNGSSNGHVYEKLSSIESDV

[3] = Oral bioavailability in Sprague-Dawley rat at 1 mg/kg administered through cassette dosing; type: ADME, organism-based; conditions: in vivo
[4] = Ratio of drug level in brain to plasma in Sprague-Dawley rat at 0.5 mg/kg, iv administered through cassette dosing measured after 0.5 hrs; type: ADME, organism-based; conditions: brain and plasma
[5] = Total clearance in Sprague-Dawley rat at 0.5 mg/kg, iv or 1 mg/kg, po administered through cassette dosing; type: ADME, organism-based; conditions: in vivo
[6] = biological target: hERG (KCNH2) (Homo sapiens, UniProt Q12809); assay: Inhibition of human ERG expressed in HEK293 cells at 1 uM after 10 mins by whole cell patch clamp method relative to control; type: cell-based; conditions: HEK293 cells that express hERG
Sequence of hERG (KCNH2) (Q12809 whole entry): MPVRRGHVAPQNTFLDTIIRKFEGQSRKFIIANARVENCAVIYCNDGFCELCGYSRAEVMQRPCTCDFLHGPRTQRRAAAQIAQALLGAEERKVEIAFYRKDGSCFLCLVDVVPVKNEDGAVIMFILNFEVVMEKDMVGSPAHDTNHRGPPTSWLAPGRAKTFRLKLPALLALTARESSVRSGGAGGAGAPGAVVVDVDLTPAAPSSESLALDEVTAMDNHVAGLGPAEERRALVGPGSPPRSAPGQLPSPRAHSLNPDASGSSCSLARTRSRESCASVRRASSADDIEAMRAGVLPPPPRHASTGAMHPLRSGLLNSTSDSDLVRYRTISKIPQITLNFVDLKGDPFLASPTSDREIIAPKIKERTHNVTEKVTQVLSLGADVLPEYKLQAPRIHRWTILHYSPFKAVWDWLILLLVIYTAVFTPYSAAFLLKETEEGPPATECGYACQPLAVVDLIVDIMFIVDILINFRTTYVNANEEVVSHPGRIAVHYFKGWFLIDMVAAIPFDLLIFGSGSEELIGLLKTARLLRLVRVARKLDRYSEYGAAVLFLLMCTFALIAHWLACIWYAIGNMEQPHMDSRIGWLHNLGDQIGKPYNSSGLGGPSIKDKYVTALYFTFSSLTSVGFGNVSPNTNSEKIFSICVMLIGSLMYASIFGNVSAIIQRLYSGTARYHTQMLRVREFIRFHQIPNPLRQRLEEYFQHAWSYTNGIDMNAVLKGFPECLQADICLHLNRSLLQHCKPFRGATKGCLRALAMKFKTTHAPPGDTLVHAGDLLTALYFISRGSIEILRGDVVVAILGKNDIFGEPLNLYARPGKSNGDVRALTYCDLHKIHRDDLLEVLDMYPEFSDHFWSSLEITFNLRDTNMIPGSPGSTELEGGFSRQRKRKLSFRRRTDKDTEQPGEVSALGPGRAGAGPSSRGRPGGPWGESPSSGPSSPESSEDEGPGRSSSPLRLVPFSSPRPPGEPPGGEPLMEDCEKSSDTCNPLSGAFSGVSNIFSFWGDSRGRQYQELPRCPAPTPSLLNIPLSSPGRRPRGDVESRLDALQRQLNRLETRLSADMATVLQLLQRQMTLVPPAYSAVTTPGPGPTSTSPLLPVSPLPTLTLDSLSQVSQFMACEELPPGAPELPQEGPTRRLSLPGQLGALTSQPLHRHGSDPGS

[7] = system: Mus musculus; assay: Analgesic activity in po dosed formalin-induced chronic pain ICR mouse model assessed as reduction in rate of licking time in late phase at 30 mg/kg administered 30 min prior to formalin challenge measured during 10 to 30 mins post formalin challenge relative to control; type: functional
[8] = system: Mus musculus; assay: Analgesic activity in po dosed formalin-induced chronic pain ICR mouse model assessed as reduction in rate of licking time in early phase at 30 mg/kg administered 30 min prior to formalin challenge measured during first 5 mins post formalin challenge relative to control; type: functional
[9] = system: Mus musculus; assay: Analgesic activity in po dosed formalin-induced chronic pain ICR mouse model assessed as reduction in rate of licking time in late phase at 50 mg/kg administered 30 min prior to formalin challenge measured during 10 to 30 mins post formalin challenge relative to control; type: functional
[10] = system: Mus musculus; assay: Analgesic activity in po dosed formalin-induced chronic pain ICR mouse model assessed as reduction in rate of licking time in early phase at 50 mg/kg administered 30 min prior to formalin challenge measured during first 5 mins post formalin challenge relative to control; type: functional

`O=c1[nH]c2ccc(-c3cc(C[C@]4(O)CC[C@@H](Cc5ccc(Cl)cc5)CC4)no3)cc2o1` gave an IC50 [1] of 0.0398 µM and an IC50 [2] of 0.2 µM.

`COc1ccc(C[C@H]2CC[C@](O)(CC(=O)Nc3ccc4[nH]c(=O)oc4c3)CC2)cc1` showed a bioavailability [3] of 16%, a Kp at 0.5 h [4] of 0.11 and a clearance [5] of 45.9 mL/min/kg. The IC50 [1] was 0.001 µM and the IC50 [2] was 0.0631 µM.

`O[C@]1(Cc2cc(-c3cn[nH]c3)on2)CC[C@H](Cc2ccccc2)CC1` showed a bioavailability [3] of 46.3%, a Kp at 0.5 h [4] of 1.44 and a clearance [5] of 56.5 mL/min/kg. For the same compound, the IC50 [1] was 0.0158 µM, the inhibition at 10 min, 1 µM [6] was 14% and the IC50 [2] was 0.0398 µM.

Work on `O=C(C[C@]1(O)CC[C@@H](Cc2ccc(C(F)(F)F)cc2)CC1)Nc1ccc2[nH]c(=O)oc2c1` yielded an IC50 [1] of 0.00631 µM and an IC50 [2] of 0.0251 µM.

With `O=C(Nc1ccc2[nH]c(=O)oc2c1)C(=O)N1CCC(Cc2ccc(F)cc2)CC1` [RADIPRODIL] the bioavailability [3] was 30%, the Kp at 0.5 h [4] was 1 and the clearance [5] was 37.1 mL/min/kg. The IC50 [1] was 0.00316 µM and the IC50 [2] was 0.0316 µM.

Compound `O=c1[nH]c2ccc(-c3cc(C[C@]4(O)CC[C@@H](Cc5ccccc5)CC4)no3)cc2o1` has a bioavailability [3] of 8.4%, a Kp at 0.5 h [4] of 0.92 and a clearance [5] of 12.1 mL/min/kg. It also gave an IC50 [1] of 0.0158 µM and an IC50 [2] of 0.1 µM.

Compound `O=C1Cc2cc(NC(=O)C[C@]3(O)CC[C@@H](Cc4ccccc4)CC3)ccc2N1` has a bioavailability [3] of 28.2%, a Kp at 0.5 h [4] of 0.11 and a clearance [5] of 16.5 mL/min/kg. For the same compound, the IC50 [1] was 0.0158 µM, the inhibition at 10 min, 1 µM [6] was 12.1% and the IC50 [2] was 0.0316 µM.

Compound `COc1ccc(C[C@H]2CC[C@](O)(Cc3cc(-c4cn[nH]c4)on3)CC2)cc1` has a bioavailability [3] of 23.7%, a Kp at 0.5 h [4] of 1.64 and a clearance [5] of 61.8 mL/min/kg. The IC50 [1] was 0.0251 µM and the IC50 [2] was 0.0398 µM.

In the case of `O=C(C[C@]1(O)CC[C@H](Cc2ccccc2)CC1)Nc1ccc2[nH]c(=O)oc2c1`, the bioavailability [3] is reported as 33%, the Kp at 0.5 h [4] is reported as 0.9 and the clearance [5] is reported as 35.1 mL/min/kg. For the same compound, the IC50 [1] was 0.0158 µM, the inhibition at 10 min, 1 µM [6] was 7.7% and the IC50 [2] was 0.0316 µM.

`O=c1ccc(-c2cc(C[C@]3(O)CC[C@@H](Cc4ccccc4)CC3)no2)c[nH]1` gave a bioavailability [3] of 53.1%, a Kp at 0.5 h [4] of 0.34 and a clearance [5] of 37.6 mL/min/kg. For the same compound, the IC50 [1] was 0.01 µM, the inhibition at 10 min, 1 µM [6] was 4.4% and the IC50 [2] was 0.0251 µM.

Compound `O[C@]1(Cc2cc(-c3cn[nH]c3)on2)CC[C@H](Cc2ccc(F)cc2)CC1` has a bioavailability [3] of 78%, a Kp at 0.5 h [4] of 1.62 and a clearance [5] of 30 mL/min/kg. The IC50 [1] was 0.0126 µM, the inhibition at 10 min, 1 µM [6] was 22.5% and the IC50 [2] was 0.0126 µM.

Compound `O=C(C[C@]1(O)CC[C@@H](Cc2ccc(F)cc2)CC1)Nc1ccc2[nH]c(=O)oc2c1` has a bioavailability [3] of 42.4%, a Kp at 0.5 h [4] of 0.12 and a clearance [5] of 36.8 mL/min/kg. For the same compound, the IC50 [1] was 0.000631 µM, the inhibition at 10 min, 1 µM [6] was 26.1% and the IC50 [2] was 0.0251 µM.

Work on `O=C(C[C@]1(O)CC[C@@H](Cc2ccc(Cl)cc2)CC1)Nc1ccc2[nH]c(=O)oc2c1` yielded an IC50 [1] of 0.00316 µM and an IC50 [2] of 0.0251 µM.

Compound `O[C@]1(Cc2cc(-c3cn[nH]c3)on2)CC[C@@H](Cc2ccc(Cl)cc2)CC1` has an IC50 [1] of 0.2 µM and an IC50 [2] of 0.631 µM.

`O=C(C[C@]1(O)CC[C@@H](Cc2ccc(OC(F)(F)F)cc2)CC1)Nc1ccc2[nH]c(=O)oc2c1` gave a bioavailability [3] of 53.4%, a Kp at 0.5 h [4] of 0.15 and a clearance [5] of 21 mL/min/kg. The IC50 [1] was 0.00316 µM and the IC50 [2] was 0.0501 µM.

With `O[C@]1(Cc2cc(-c3cn[nH]c3)on2)CC[C@H](Cc2ccc(C(F)(F)F)cc2)CC1` the bioavailability [3] was 67.5%, the Kp at 0.5 h [4] was 2.66 and the inhibition in vivo at 30 mg/kg [7] was 96.5%. The inhibition in vivo at 30 mg/kg [8] was 84.8%, the clearance [5] was 4 mL/min/kg and the IC50 [1] was 0.0126 µM. It also gave an IC50 [2] of 0.1 µM.

Compound `O=C(C[C@]1(O)CC[C@@H](Cc2ccccc2)CC1)Nc1ccc2[nH]ncc2c1` has a bioavailability [3] of 23.7%, a Kp at 0.5 h [4] of 0.9 and an inhibition in vivo at 50 mg/kg [9] of 74.4%. The inhibition in vivo at 50 mg/kg [10] was 59.5%, the clearance [5] was 21.5 mL/min/kg and the IC50 [1] was 0.0398 µM. It also gave an inhibition at 10 min, 1 µM [6] of 18% and an IC50 [2] of 0.0631 µM.

`O[C@]1(Cc2cc(-c3cn[nH]c3)on2)CC[C@H](Cc2ccc(OC(F)(F)F)cc2)CC1` showed a bioavailability [3] of 121%, a Kp at 0.5 h [4] of 2.51 and an inhibition in vivo at 30 mg/kg [7] of 95.4%. The inhibition in vivo at 30 mg/kg [8] was 76.8%, the clearance [5] was 6.2 mL/min/kg and the IC50 [1] was 0.0251 µM. For the same compound, the IC50 [2] was 0.0794 µM.

`O=C(C[C@]1(O)CC[C@H](Cc2ccc(F)cc2)CC1)Nc1ccc2[nH]c(=O)oc2c1` showed a bioavailability [3] of 58%, a Kp at 0.5 h [4] of 0.23 and a clearance [5] of 42.3 mL/min/kg. It also gave an IC50 [1] of 0.0158 µM, an inhibition at 10 min, 1 µM [6] of 12.2% and an IC50 [2] of 0.0398 µM.

For `O[C@]1(Cc2cc(-c3cn[nH]c3)on2)CC[C@H](Cc2ccc(F)c(F)c2)CC1`, the bioavailability [3] was 67.5%, the Kp at 0.5 h [4] was 1.99 and the clearance [5] was 15.2 mL/min/kg. The IC50 [1] was 0.0398 µM, the inhibition at 10 min, 1 µM [6] was 15% and the IC50 [2] was 0.0794 µM.

Compound `O=C1CCc2cc(NC(=O)C[C@]3(O)CC[C@@H](Cc4ccccc4)CC3)ccc2N1` has a bioavailability [3] of 53.4%, a Kp at 0.5 h [4] of 0.18 and an inhibition in vivo at 50 mg/kg [9] of 25.7%. It also gave an inhibition in vivo at 50 mg/kg [10] of 1.5%, a clearance [5] of 24.4 mL/min/kg and an IC50 [1] of 0.01 µM. The inhibition at 10 min, 1 µM [6] was 11.3% and the IC50 [2] was 0.0316 µM.

In the case of `O=c1ccc(-c2cc(C[C@]3(O)CC[C@H](Cc4ccc(Cl)cc4)CC3)no2)c[nH]1`, the bioavailability [3] is reported as 38.7%, the Kp at 0.5 h [4] is reported as 0.47 and the clearance [5] is reported as 6.6 mL/min/kg. The IC50 [1] was 0.0631 µM, the inhibition at 10 min, 1 µM [6] was 29.2% and the IC50 [2] was 0.316 µM.

For `O[C@]1(Cc2cc(-c3cn[nH]c3)on2)CC[C@H](Cc2ccc(Cl)cc2)CC1`, the bioavailability [3] was 72.8%, the Kp at 0.5 h [4] was 1.31 and the clearance [5] was 11.7 mL/min/kg. The IC50 [1] was 0.00631 µM, the inhibition at 10 min, 1 µM [6] was 32% and the IC50 [2] was 0.0398 µM.

With `O=C(C[C@]1(O)CC[C@@H](Cc2ccccc2)CC1)Nc1ccc2[nH]c(=O)oc2c1` the bioavailability [3] was 47.4%, the Kp at 0.5 h [4] was 0.25 and the inhibition in vivo at 50 mg/kg [9] was 66.7%. For the same compound, the inhibition in vivo at 50 mg/kg [10] was 58.1%, the clearance [5] was 34.1 mL/min/kg and the IC50 [1] was 0.000631 µM. It also gave an inhibition at 10 min, 1 µM [6] of 13.2% and an IC50 [2] of 0.0158 µM.

`O=C(C[C@]1(O)CC[C@@H](Cc2ccc(F)c(F)c2)CC1)Nc1ccc2[nH]c(=O)oc2c1` gave a bioavailability [3] of 12.1%, a Kp at 0.5 h [4] of 0.14 and a clearance [5] of 35.7 mL/min/kg. The IC50 [1] was 0.002 µM and the IC50 [2] was 0.0251 µM.

With `O=c1ccc(-c2cc(C[C@]3(O)CC[C@@H](Cc4ccc(Cl)cc4)CC3)no2)c[nH]1` the bioavailability [3] was 37.2%, the Kp at 0.5 h [4] was 0.08 and the clearance [5] was 16.8 mL/min/kg. For the same compound, the IC50 [1] was 0.001 µM, the inhibition at 10 min, 1 µM [6] was 23% and the IC50 [2] was 0.0251 µM.

With `O=c1ccc(-c2nc(C[C@]3(O)CC[C@@H](Cc4ccc(Cl)cc4)CC3)no2)c[nH]1` the IC50 [1] was 0.158 µM and the IC50 [2] was 0.126 µM.
